Tested on: SYO-1 complex spheroid growth, percent test/control
Test: Anticancer human tumor SYO-1 cell line growth inhibition [Asc];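 further: compound exposure lasted 7 days after spheroids grew 3 days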;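 on viability, T/C: 100% = DMSO vehicle control viability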
Conditions: for IC50: curve of first compound; for viability, T/C: stronger effect = lower value
Method: Multicellular complex tumor spheroid response to apoptosis pathway targeting inhibitors Alrizomadlin, Pelcitoclax, and Dasminapant in combination with a variety of drugs and investigational agents in selected tumor cell lines
The MDM2 inhibitor alrizomadlin, the Bcl-2/Bcl-xL inhibitor pelcitoclax, and the IAPs inhibitor dasminapant were evaluated both individually and in combination with standard of care and investigational anticancer small molecules within a complex spheroid model of solid tumors. . Complex spheroids include a stromal component modeled by human endothelial cells (HUVEC) and fibroblasts modeled by human mesenchymal stem cells (MSCs). The concentration ranges selected for each drug and investigational agent were based upon clinically achievable concentrations if the clinical Cmax of the agent was known.
Compounds. The drugs and investigational agents: alrizomadlin (APG-115; NSC831270), pelcitoclax (APG-1252; NSC835773), dasminapant (APG-1387;NSC834197), TAK-243 (NSC785004), copanlisib (NSC809693), olaparib (NSC753686), talazoparib (NSC767125), cobimetinib (NSC 768068), eltanexor (KPT-8602, NSC 794443), abemaciclib (NSC 768073), sotorasib (NSC818433), adagrasib (NSC 831453), MRTX-1133 (NSC 836407), Iadademestat (ORY1001, NSC 806812), and RMC-4630 (NSC839698), were obtained from the NCI Developmental Therapeutics Program Chemical Repository. The FDA-approved anticancer drug set is available from the Developmental Therapeutics Program at https://dtp.cancer.gov/organization/dscb/obtaining/available plates.htm. […] The stock solutions were prepared in dimethyl sulfoxide (DMSO, Sigma-Aldrich, St. Louis, MO, cat. D2650) at 800-fold the tested concentration and stored at -70 degrees C prior to their use. All drugs and investigational agents were tested over a range starting from a high concentration at or near the clinical Cmax and decreasing in half-log increments. If the clinical Cmax for an agent had not been determined, the highest concentration tested was 10 microM.
The patient-derived cancer (PDC) cell lines include five colon adenocarcinomas: 186277-243-T-J2-PDC, 616215-338-R-J1-PDC, 439559-082-T-J2-PDC, 463943-066-T-J2-PDC, and 519858-162-T-J1-PDC; three pancreatic carcinomas: 323965-272-R-J2-PDC, 521955-158-R6-J3-PDC, and 521955-158-R2-J5-PDC; two uterine sarcomas: 327498-152-R-J2-PDC and 993429-296-R-J1-PDC; two rhabdomyosarcomas: 755483-174-R-J1-PDC and 772245-204-R-J1-PDC; two soft tissue sarcomas: 126254-015-R-J1-PDC and 494315-158-R-J1-PDC; two malignant fibrous histiocytomas: 317291-083-R-J1-PDC and 596521-263-R-J1-PDC; two breast carcinomas: 171881-019-R-J1-PDC and 885512-296-R-J2-PDC; and one ovarian carcinoma: 6556581-035-R-J-PDC were obtained from the NCI PDMR, (https://pdmr.cancer.gov). The established cell lines HSSY-2 synovial sarcoma (RRID:CVCL 8719), SYO-1 synovial sarcoma (RRID:CVCL_7146), MPNST malignant peripheral neural sheath tumor were obtained from the Sloan Kettering Institute. The following established cell lines were purchased from the American Type Culture Collection (ATCC, Manassas, VA), Sor the received from the NCI repository:, PANC-1 pancreatic carcinoma (CRL-1469, RRID:CVCL_0480), OVCAR-5 ovarian carcinoma (RRID:CVCL_1628), OVCAR-8 ovarian carcinoma (RRID:CVCL_1629), , MCF-7 breast carcinoma (CRL-12584, RRID:CVCL_0031), MDA-MB-231 breast carcinoma (CRL-12532, RRID:CVCL_0062), NCI-H1876 small cell lung carcinoma (CRL-5902, RRID:CVCL_1503), NCI-H510A small cell lung carcinoma (HTB-184, RRID:CVCL_1565), NCI-H1417 (CRL-5869, RRID:CVCL_1469), and NCI-H196 small cell lung carcinoma (CRL-5823, RRID:CVCL_1509). Dr. Peter Houghton (Greehey Children's Cancer Research Institute, University of Texas Health Science Center, San Antonio, TX) provided Rh-18 rhabdomyosarcoma (RRID:CVCL_1659). Pooled donor human umbilical vein endothelial cells (HUVEC, Lonza, cat. CC-2519) and human mesenchymal stem cells (hMSC, Lonza, cat. PT-2501) were purchased from Lonza (Walkersville, MD).
Cell Culture. […]

[1] = second compound 0.00949 µM, first compound 0.00316 µM
[2] = second compound 0.00949 µM, first compound 0.01 µM
[3] = second compound 0.00949 µM, first compound 0.0316 µM
[4] = second compound 0.00949 µM, first compound 0.1 µM
[5] = second compound 0.00949 µM, first compound 0.316 µM
[6] = second compound 0.00949 µM, first compound 1 µM
[7] = second compound 0.03 µM, first compound 0.00316 µM
[8] = second compound 0.03 µM, first compound 0.01 µM
[9] = second compound 0.03 µM, first compound 0.0316 µM
[10] = second compound 0.03 µM, first compound 0.1 µM
[11] = second compound 0.03 µM, first compound 0.316 µM
[12] = second compound 0.03 µM, first compound 1 µM
[13] = second compound 0.0949 µM, first compound 0.00316 µM
[14] = second compound 0.0949 µM, first compound 0.01 µM
[15] = second compound 0.0949 µM, first compound 0.0316 µM
[16] = second compound 0.0949 µM, first compound 0.1 µM
[17] = second compound 0.0949 µM, first compound 0.316 µM
[18] = second compound 0.0949 µM, first compound 1 µM
[19] = second compound 0.3 µM, first compound 0.00316 µM
[20] = second compound 0.3 µM, first compound 0.01 µM
[21] = second compound 0.3 µM, first compound 0.0316 µM
[22] = second compound 0.3 µM, first compound 0.1 µM
[23] = second compound 0.3 µM, first compound 0.316 µM
[24] = second compound 0.3 µM, first compound 1 µM
[25] = second compound 0.949 µM, first compound 0.00316 µM
[26] = second compound 0.949 µM, first compound 0.01 µM
[27] = second compound 0.949 µM, first compound 0.0316 µM
[28] = second compound 0.949 µM, first compound 0.1 µM
[29] = second compound 0.949 µM, first compound 0.316 µM
[30] = second compound 0.949 µM, first compound 1 µM
[31] = second compound 3 µM, first compound 0.00316 µM
[32] = second compound 3 µM, first compound 0.01 µM
[33] = second compound 3 µM, first compound 0.0316 µM
[34] = second compound 3 µM, first compound 0.1 µM
[35] = second compound 3 µM, first compound 0.316 µM
[36] = second compound 3 µM, first compound 1 µM

CCN1CCN(Cc2ccc(Nc3ncc(F)c(-c4cc(F)c5nc(C)n(C(C)C)c5c4)n3)nc2)CC1 + CCN1C(C(=O)NC23CCC(C(=O)O)(CC2)CC3)C(c2cccc(Cl)c2F)C2(C(=O)Nc3cc(Cl)ccc32)C12CCCCC2
IC50 (second compound 0.00949 µM): > 1000 nM
IC50 (second compound 0.03 µM): > 1000 nM
IC50 (second compound 0.0949 µM): 446 nM
IC50 (second compound 0.3 µM): < 3.16 nM
IC50 (second compound 0.949 µM): < 3.16 nM
IC50 (second compound 3 µM): < 3.16 nM
viability, T/C [1]: 105%
viability, T/C [2]: 105%
viability, T/C [3]: 116%
viability, T/C [4]: 119%
viability, T/C [5]: 121%
viability, T/C [6]: 102%
viability, T/C [7]: 98.8%
viability, T/C [8]: 101%
viability, T/C [9]: 98.9%
viability, T/C [10]: 117%
viability, T/C [11]: 106%
viability, T/C [12]: 73.1%
viability, T/C [13]: 87%
viability, T/C [14]: 85%
viability, T/C [15]: 87.5%
viability, T/C [16]: 88.6%
viability, T/C [17]: 63%
viability, T/C [18]: 19.5%
viability, T/C [19]: 25.1%
viability, T/C [20]: 20.8%
viability, T/C [21]: 20.6%
viability, T/C [22]: 16.5%
viability, T/C [23]: 9.85%
viability, T/C [24]: 2.81%
viability, T/C [25]: 2.61%
viability, T/C [26]: 2.87%
viability, T/C [27]: 2.98%
viability, T/C [28]: 4.27%
viability, T/C [29]: 2.21%
viability, T/C [30]: 1.42%
viability, T/C [31]: 2.07%
viability, T/C [32]: 1.29%
viability, T/C [33]: 2.77%
viability, T/C [34]: 1.88%
viability, T/C [35]: 3.26%
viability, T/C [36]: 2.37%

O=C(c1ccc(F)c(F)c1Nc1ccc(I)cc1F)N1CC(O)([C@@H]2CCCCN2)C1 + CCN1C(C(=O)NC23CCC(C(=O)O)(CC2)CC3)C(c2cccc(Cl)c2F)C2(C(=O)Nc3cc(Cl)ccc32)C12CCCCC2
IC50 (second compound 0.00949 µM): > 1000 nM
IC50 (second compound 0.03 µM): > 1000 nM
IC50 (second compound 0.0949 µM): 823 nM
IC50 (second compound 0.3 µM): < 3.16 nM
IC50 (second compound 0.949 µM): < 3.16 nM
IC50 (second compound 3 µM): < 3.16 nM
viability, T/C [1]: 115%
viability, T/C [2]: 103%
viability, T/C [3]: 99.9%
viability, T/C [4]: 111%
viability, T/C [5]: 107%
viability, T/C [6]: 119%
viability, T/C [7]: 96.5%
viability, T/C [8]: 99.5%
viability, T/C [9]: 102%
viability, T/C [10]: 116%
viability, T/C [11]: 116%
viability, T/C [12]: 103%
viability, T/C [13]: 83.5%
viability, T/C [14]: 93.1%
viability, T/C [15]: 94.5%
viability, T/C [16]: 95%
viability, T/C [17]: 93.5%
viability, T/C [18]: 41.4%
viability, T/C [19]: 30.4%
viability, T/C [20]: 23.9%
viability, T/C [21]: 24.8%
viability, T/C [22]: 21.6%
viability, T/C [23]: 10.2%
viability, T/C [24]: 0.94%
viability, T/C [25]: 5.46%
viability, T/C [26]: 5.3%
viability, T/C [27]: 3.35%
viability, T/C [28]: 1.43%
viability, T/C [29]: 0.7%
viability, T/C [30]: 0.15%
viability, T/C [31]: 1.44%
viability, T/C [32]: 2.44%
viability, T/C [33]: 1.3%
viability, T/C [34]: 0.81%
viability, T/C [35]: 0.22%
viability, T/C [36]: 0.42%
